Laboratory results published in the Kinase Knowledgebase extract (Sharma et al. 2016).

Biological target: CDK2 (UniProt P24941)
Test: Enzyme Assay

Row | IC50 [µM] | Structure (SMILES)
1 | 10 to 250 | Cc1ccc(S(=O)(=O)Nc2ccc(Nc3cc(-c4cccc(/C=C/C(=O)O)c4)ncn3)cc2)cc1
2 | 10 to 250 | Oc1ccccc1-c1cc(NCCc2ccncc2)ncn1
3 | 10 to 250 | CN1CCN(c2cc(Nc3ccc(NC(=O)C(C)(C)C)cc3)ncn2)CC1
4 | 10 to 250 | COc1ccc(-c2cc(NCCc3ccncc3)ncn2)cc1
5 | 10 to 250 | COc1ccccc1-c1cc(Nc2ccc(NC(=O)C3(NC(=O)OC(C)(C)C)CCCC3)cc2)ncn1
6 | 10 to 250 | Nc1ccc(C(=O)Nc2ccc(Nc3cc(-c4cccs4)ncn3)cc2)cc1
7 | 0.001 to 1 | Cc1ccc(Nc2cc(-c3ccccc3OCc3ccccc3)ncn2)cc1NS(C)(=O)=O
8 | 1 to 10 | CC(C)Oc1ccccc1-c1cc(Nc2ccc(NC(=O)[C@@H]3CCCCN3)cc2)ncn1
9 | 10 to 250 | COc1ccccc1-c1cc(Nc2ccc(NC(=O)c3ccc4[nH]cnc4c3)cc2)ncn1
10 | 10 to 250 | C=Cc1ccccc1-c1cc(Nc2ccc(NC(=O)C(C)(C)C)cc2)ncn1
11 | 0.001 to 1 | Cc1ccc(Nc2cc(-c3ccccc3OC(C)C)ncn2)cc1NS(C)(=O)=O
12 | 10 to 250 | Nc1ccc(C(=O)Nc2ccc(Nc3cc(NCC4CCCCC4)ncn3)cc2)cc1
13 | 0.001 to 1 | COc1ccccc1-c1cc(Nc2ccc(C(N)=O)cc2)ncn1
14 | 1 to 10 | Nc1cccc(-c2cc(Nc3cccc(S(N)(=O)=O)c3)ncn2)c1
15 | 0.001 to 1 | COc1ccccc1-c1cc(Nc2cccc(S(N)(=O)=O)c2)ncn1
16 | 10 to 250 | COc1ccccc1-c1cc(Nc2ccc(NC(=O)Nc3ccc4c(c3)OCO4)cc2)ncn1
17 | 10 to 250 | Nc1ccc(C(=O)Nc2ccc(Nc3cc(-c4ccncc4)ncn3)cc2)cc1
18 | 10 to 250 | Nc1ccc(C(=O)Nc2ccc(Nc3cc(/C=C/c4ccccc4)ncn3)cc2)cc1
19 | 10 to 250 | COc1ccccc1-c1cc(Nc2ccc(NC(=O)C(c3ccccc3)C(C)C)cc2)ncn1 (configuration not stated)
20 | 10 to 250 | Nc1ccc(C(=O)Nc2ccc(Nc3cc(NCCO)ncn3)cc2)cc1
21 | 1 to 10 | O=C(Nc1ccc(Nc2cc(-c3ccc(Oc4ccccc4)cc3)ncn2)cc1)[C@@H]1CCCCN1
22 | 10 to 250 | COc1ccc(C(C)C)cc1-c1cc(Nc2ccc(NC(=O)c3ccc(N)cc3)cc2)ncn1
23 | 10 to 250 | COc1cccc(OC)c1-c1cc(Nc2ccc(NC(=O)c3ccc(N)cc3)cc2)ncn1
24 | 1 to 10 | COc1ccccc1-c1cc(Nc2ccc(C(=O)NC(C)(C)C)cc2)ncn1

Row | IC50 [µM] | Structure (SMILES)
25 | 1 to 10 | COc1ccccc1-c1cc(Nc2ccc(NC(=O)C3CCN(C)CC3)cc2)ncn1
26 | 1 to 10 | COc1cccc(-c2cc(Nc3ccc(C)c(NS(C)(=O)=O)c3)ncn2)c1
27 | 1 to 10 | c1ccc(COc2ccccc2-c2cc(NCCc3ccncc3)ncn2)cc1
28 | 0.001 to 1 | COc1ccccc1-c1cc(Nc2cccc(S(C)(=O)=O)c2)ncn1
29 | 0.001 to 1 | Nc1cccc(-c2cc(Nc3ccc(S(N)(=O)=O)cc3)ncn2)c1
30 | 0.001 to 1 | COc1ccccc1-c1cc(Nc2ccc(C)c(NS(C)(=O)=O)c2)ncn1
31 | 1 to 10 | COc1ccc(-c2cc(Nc3ccc(NS(=O)(=O)c4ccc(C)cc4)cc3)ncn2)cc1
32 | 1 to 10 | COc1ccccc1-c1cc(Nc2ccc(NC(=O)C(c3ccccc3)N(C)C)cc2)ncn1 (configuration not stated)
33 | 0.001 to 1 | COc1ccc(-c2cc(Nc3ccc(C)c(NS(C)(=O)=O)c3)ncn2)cc1
34 | 1 to 10 | CCc1ccccc1-c1cc(Nc2ccc(NC(=O)C(C)(C)C)cc2)ncn1
35 | 1 to 10 | COc1ccccc1-c1cc(Nc2ccc(NC(=O)CN(C)C)cc2)ncn1
36 | 10 to 250 | COc1ccccc1-c1cc(Nc2ccc(NC(=O)c3ccc4ccccc4n3)cc2)ncn1
37 | 1 to 10 | COc1ccccc1-c1cc(Nc2ccc(C(=O)Nc3ccc(O)cc3)cc2)ncn1
38 | 10 to 250 | COc1ccccc1-c1cc(Nc2ccc(C(=O)Nc3ccc(C(C)C)cc3)cc2)ncn1
39 | 1 to 10 | COc1ccccc1-c1cc(Nc2ccc(NC(=O)NC(C)(C)C)cc2)ncn1
40 | 1 to 10 | COC(=O)/C=C/c1cccc(-c2cc(Nc3ccc(C)c(NS(C)(=O)=O)c3)ncn2)c1
41 | 10 to 250 | COc1ccc(Cl)cc1-c1cc(Nc2ccc(NC(=O)c3ccc(N)cc3)cc2)ncn1
42 | 10 to 250 | Cc1ccc(Nc2cc(-c3cccc(N)c3)ncn2)cc1NS(=O)(=O)c1cccc2cccnc12
43 | 1 to 10 | COc1ccccc1-c1cc(Nc2ccc(C(=O)N[C@@H]3CCCC[C@@H]3N)cc2)ncn1.COc1ccccc1-c1cc(Nc2ccc(C(=O)N[C@H]3CCCC[C@H]3N)cc2)ncn1
44 | 0.001 to 1 | Cc1ccc(Nc2cc(-c3cccc(O)c3)ncn2)cc1NS(C)(=O)=O
45 | 10 to 250 | COc1ccccc1-c1cc(Nc2ccc(NC(=O)c3ccncc3)cc2)ncn1
46 | 10 to 250 | COc1ccccc1-c1cc(NCCc2ccncc2)ncn1
47 | 0.001 to 1 | Cc1ccc(Nc2cc(-c3cccc(NS(C)(=O)=O)c3)ncn2)cc1CS(N)(=O)=O
48 | 0.001 to 1 | COc1ccccc1-c1cc(Nc2cccc(C(N)=O)c2)ncn1

Row | IC50 [µM] | Structure (SMILES)
49 | 1 to 10 | Nc1ccc(C(=O)Nc2ccc(Nc3cc(-c4cccc(N)c4)ncn3)cc2)cc1
50 | 10 to 250 | CC(C)(C)C(=O)Nc1ccc(Nc2cc(-c3cccnc3)ncn2)cc1
51 | 1 to 10 | COc1ccccc1-c1cc(Nc2ccc(NC(=O)CC(C)(C)C)cc2)ncn1
52 | 1 to 10 | COc1ccccc1-c1cc(Nc2ccc(NC(=O)C(N)c3ccc4ccccc4c3)cc2)ncn1 (configuration not stated)
53 | 10 to 250 | COc1ccccc1-c1cc(Nc2ccc(NC(=O)C(C)(C)C)cc2C)ncn1
54 | 1 to 10 | COc1ccccc1-c1cc(N(C)c2ccc(NS(=O)(=O)c3ccc(C)cc3)cc2)ncn1
55 | 0.001 to 1 | COc1ccccc1-c1cc(Nc2ccc(NS(=O)(=O)c3ccccc3)cc2)ncn1
56 | 1 to 10 | COc1ccccc1-c1cc(Nc2ccc(C(=O)N[C@@H]3CCCC[C@H]3O)cc2)ncn1.COc1ccccc1-c1cc(Nc2ccc(C(=O)N[C@H]3CCCC[C@@H]3O)cc2)ncn1
57 | 0.001 to 1 | COc1ccccc1-c1cc(Nc2cccc(N)c2)ncn1
58 | 1 to 10 | COc1ccccc1-c1cc(Nc2ccc(C(=O)Nc3ccc(N4CCOCC4)cc3)cc2)ncn1
59 | 10 to 250 | Cc1ccc(Nc2cc(-c3cccc(C(F)(F)F)c3)ncn2)cc1NS(C)(=O)=O
60 | 1 to 10 | CC[C@H](C)[C@H](N)C(=O)Nc1ccc(Nc2cc(-c3ccccc3OC)ncn2)cc1
61 | 10 to 250 | COc1ccccc1-c1cc(Nc2ccc(-c3nc4ccccc4o3)cc2)ncn1
62 | 10 to 250 | CC(C)(C)C(=O)Nc1ccc(Nc2cc(NCCCO)ncn2)cc1
63 | 0.001 to 1 | COC(=O)CN(c1ccc(Nc2cc(-c3ccc(O)cc3)ncn2)cc1)S(=O)(=O)c1ccc(C)cc1
64 | 1 to 10 | CSc1ccccc1-c1cc(Nc2ccc(NC(=O)[C@@H]3CCCCN3)cc2)ncn1
65 | 1 to 10 | Cc1ccc(Nc2cc(-c3cccc(C=O)c3)ncn2)cc1NS(C)(=O)=O
66 | 1 to 10 | Cc1ccc(S(=O)(=O)Nc2ccc(Nc3cc(Cl)ncn3)cc2)cc1
67 | 10 to 250 | COc1ccccc1-c1cc(Nc2ccc(C(=O)Nc3ccccc3)cc2)ncn1
68 | 1 to 10 | Cc1ccc(Nc2cc(-c3cccc(CO)c3)ncn2)cc1NS(C)(=O)=O
69 | 1 to 10 | COc1ccccc1-c1cc(Nc2ccc(NS(=O)(=O)c3ccc(-c4ccccc4)cc3)cc2)ncn1
70 | 1 to 10 | CC(C)Oc1ccccc1-c1cc(Nc2ccc(C(=O)N[C@@H]3CCCC[C@H]3N)cc2)ncn1.CC(C)Oc1ccccc1-c1cc(Nc2ccc(C(=O)N[C@H]3CCCC[C@@H]3N)cc2)ncn1
71 | 10 to 250 | COc1cccc(-c2cc(Nc3ccc(NS(=O)(=O)c4ccc(C)cc4)cc3)ncn2)c1
72 | 1 to 10 | COc1ncccc1-c1cc(Nc2ccc(C)c(NS(C)(=O)=O)c2)ncn1
